Patent publication US20230123334A1, “AMINO LIPID COMPOUND, PREPARATION METHOD THEREFOR, AND APPLICATION THEREOF” (SHENZHEN SHENXIN BIOTECHNOLOGY CO., LTD., priority 2020, published 2023)

Tests used:
Type in all cases: cell-based
Hela cells [1] = experiment: Transfection of Hela cell line, DNA vectors; details: 75 ng plasmid DNA, GFP cells / total cells
Protocol: 1. The compound (0.01 mmol) prepared in Example 1 was dissolved in 1 mL of anhydrous ethanol. After ultrasonically dissolved, 10 μL of the resultant amino lipid solution in ethanol was taken and mixed with 5 μL of DOPE solution in ethanol (0.01 m), and then to the obtained mixture was added 35 μL of 0.2M sodium acetate buffer (pH 5.6), and 50 μL of liposome solution was prepared by vortex at a constant rotating speed for 30 s. 4 μL was taken from the 50 μL liposome solution and added to 46 μL of 0.02M sodium acetate buffer (pH 5.6), and the final liposome solution was formed by vortex at a constant rotating speed for 30 s. 5 μL was taken from the final liposome solution and mixed with 75 ng plasmid DNA (psin-EGFP-IRES-Puro, Clontech) dissolved in 5 μL of 0.02 M sodium acetate buffer, and was allowed to stay at room temperature for 30 min to form a lipid/DNA transfection complex.
2. 10 μL of the lipid/DNA transfection complex was incubated at room temperature for 30 min, followed by addition of 90 μL of fresh resuspended cells (3-5×10^4 cells) and mixing with a pipette. 100 μL of cells+lipid/DNA complex was transferred to separate wells of a 96-well culture plate immediately, and placed in an incubator containing 5% CO2 at 37° C.
3. Hoechst33258 (Invitrogen) was added at a final concentration of 0.2 μg/mL to the cells 20 to 24 hours after initial cell transfection, and cultured in darkness at 37° C. for 15 min. Afterwards, the cells were washed once with a PBS solution, and then added with medium for culture for 20 to 24 h.
4. The cells were placed in a high-throughput confocal microscope (Molecular Devices ImageXpress), and four visual fields of the image of the cells were captured for each well, and images at three laser wavelengths were captured for each sample: bright field images of cells (FIG. 2(a) and FIG. 2(b)), Hoechst-staining images showing total nuclei (FIG. 2(c) and FIG. 2(d)) and GFP images showing success in transfection with the plasmid DNA and the expression of GFP (FIG. 2(e) and FIG. 2(f)). MetaXpress software was used to separately count the cells in the Hoechst-staining images and GFP images, and then the number of cells expressing GFP was divided by the total number of nuclei to give the absolute cell transfection efficiency. The absolute transfection efficiency was calculated as follows: […]
(§1) Cell line: Hela cells (ATCC 35241)
(§2) Medium: DMEM supplemented with 10% fetal bovine serum (Invitrogen)
(§3) Screening: cell transfection on 96-well plates
(§4) Detection (readout): percentage of the number of GFP fluorescent cells relative to the total number of cells (the total number of cells was determined using nucleus dye Hoechst). Lipofectamine2000 (Invitrogen) was used as the positive control, according to the manufacturer's instructions.
Method: the experimental method was basically the same with Example 4.

Hela cells [2] = experiment: Transfection of Hela cell line, mRNA vectors; details: 50 ng EGFP mRNA per well
Protocol: as §1, §2, §3
as §4, with “Hoechst). A commercially available liposome transfection reagent” for “Hoechst).”, “control group,” for “control,”
Method: the experimental method was basically the same with Example 4, and the mass of EGFP mRNA for transfection was 50 ng per well.

HEK293 cells [3] = experiment: Preliminary screening as DNA vectors, GFP transfection of HEK293 cells; details: HEK293 cells; lipid/DOPE liposome with 75 ng plasmid DNA (psin-EGFP-IRES-Puro); number of cells expressing GFP divided by total number of nuclei (Hoechst)
In short: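 HEK293 cells in DMEM/10% FBS transfected with 75 ng EGFP plasmid per well complexed with amino lipid/DOPE liposomes in pH 5.6 sodium acetate. Hoechst nuclear stain added 20-24 h post-transfection, then cells cultured another 20-24 h. Confocal imaging gives GFP-positive cells as % of total nuclei.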

HEK293 cells [4] = experiment: Preliminary screening as mRNA vectors, EGFP mRNA transfection of HEK293 cells; details: HEK293 cells, 96-well plates, EGFP mRNA 50 ng per well; percentage of GFP fluorescent cells relative to total number of cells (Hoechst)
In short: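 HEK293 cells in DMEM plus 10% FBS transfected in 96-well format with 50 ng EGFP mRNA per well; Lipofectamine2000 served as positive control. Read-out is the percentage of GFP-fluorescent cells among total cells, counted by Hoechst nuclear stain.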

Compound	Absolute DNA transfection efficiency in Hela cells (Hela cells [1]) [%]	Absolute mRNA transfection efficiency in Hela cells (Hela cells [2]) [%]	Absolute DNA transfection efficiency in HEK293 cells (HEK293 cells [3]) [%]	Absolute mRNA transfection efficiency in HEK293 cells (HEK293 cells [4]) [%]
CCCCCCCCCCCSc1nc(NCCN(CC)CC)nc(SCCCCCCC)n1 [Compound S7S11D7]	5.2	5.2	–	–
CCCCCCCCCCCNc1nc(NCCN(CC)CC)nc(SCCCCCCCC)n1 [Compound S8N11D7]	12.2	12.3	–	–
CCCCCCCCCCCSc1nc(NCCCCCCC)nc(NCCN(CC)CC)n1 [Compound S11N7D7]	5.8	5.8	–	–
CCCCCCCCCCCSc1nc(NCCCCCCCCC)nc(NCCN(C)C)n1 [Compound S11N9D1]	6.0	6.0	–	–
CCCCCCNc1nc(NCCCCCC)nc(NCCN(CC)CC)n1 [Compound N6N6D7]	–	–	0.0	0.0
CCCCCCCCCCCNc1nc(NCCCCCCC)nc(NCCN2CCN(C)CC2)n1 [Compound N7N11D5]	–	–	0.6	0.1
CCCCCCCCCCCCCCCCCCNc1nc(NCCCCCCCCCCCCCCCCCC)nc(NCC2CCN(C)CC2)n1 [Compound N18N18D10]	–	–	0.0	0.0
CCCCCCCCCCCCCCSc1nc(NCCN(C)C)nc(SCCCCCCCCCCC)n1 [Compound S11S14D1]	–	–	2.0	1.9
CCCCCCCCCCCCCCCSc1nc(NCCN2CCCCC2)nc(SCCCCCCCCCCCCCCC)n1 [Compound S15S15D4]	–	–	1.5	1.5
CCCCCCCCCCCCCCCCSc1nc(NCCN(C)C)nc(SCCCCCCCCCCC)n1 [Compound S11S16D1]	–	–	0.5	2.4
CCCCCCCNc1nc(NCCCCCC)nc(NCCCN2CCN(C)CC2)n1 [Compound N6N7D9]	–	–	0.0	0.0
CCCCCCCCCCCCCCCNc1nc(NCCCCCCCCCCCCCCC)nc(NCCCN2CCN(C)CC2)n1 [Compound N15N15D9]	–	–	0.4	0.0
CCCCCCCCCCCCCCCCCCSc1nc(NCC2CCN(C)CC2)nc(SCCCCCCCCCC)n1 [Compound S10S18D10]	–	–	43.1	54.6
CCCCCCCCCCCCNc1nc(NCCCCCCCCCCC)nc(NCCN2CCOCC2)n1 [Compound N11N12D2]	–	–	0.5	0.5
CCCCCCCCCCCSc1nc(NCCN2CCCC2)nc(SCCCCCCCCCC)n1 [Compound S10S11D3]	–	–	6.8	4.4
CCCCCCCCCCCCCCCCSc1nc(NCCN2CCN(C)CC2)nc(SCCCCCCCCCCCCCC)n1 [Compound S14S16D5]	–	–	0.1	0.2
CCCCCCCCCSc1nc(NCCN2CCOCC2)nc(SCCCCCCCCC)n1 [Compound S9S9D2]	–	–	6.8	3.1
CCCCCCCCCCCCCCCCCCSc1nc(NCCN2CCCCC2)nc(SCCCCCCCCCCCCCCCC)n1 [Compound S16S18D4]	–	–	0.3	0.3
CCCCCCCCCCCCCCCCSc1nc(NCCCN(C)C)nc(SCCCCCCCCCC)n1 [Compound S10S16D6]	–	–	14.1	41.6

Compound	Absolute DNA transfection efficiency in Hela cells (Hela cells [1]) [%]	Absolute mRNA transfection efficiency in Hela cells (Hela cells [2]) [%]	Absolute DNA transfection efficiency in HEK293 cells (HEK293 cells [3]) [%]	Absolute mRNA transfection efficiency in HEK293 cells (HEK293 cells [4]) [%]
CCCCCCCCCCCCCCCCCCSc1nc(NCCCN2CCOCC2)nc(SCCCCCCCCC)n1 [Compound S9S18D8]	–	–	27.0	12.4
CCCCCCCCCCCCCCCCSc1nc(NCCCN2CCOCC2)nc(SCCCCCCCCCC)n1 [Compound S10S16D8]	–	–	15.7	4.0
CCCCCCCCCCCCCCCSc1nc(NCC2CCN(C)CC2)nc(SCCCCCCCC)n1 [Compound S8S15D10]	–	–	32.1	64.0
CCCCCCCCCCCCCCCCNc1nc(NCCCCCCC)nc(NCCN(CC)CC)n1 [Compound N7N16D7]	–	–	0.0	0.4
CCCCCCCCCCCCCCCCCCSc1nc(NCC2CCN(C)CC2)nc(SCCCCCCCCCCCCCC)n1 [Compound S14S18D10]	–	–	1.7	1.5
CCCCCCCCCCCCCCCCCCNc1nc(NCCCCCC)nc(NCCCN(C)C)n1 [Compound N6N18D6]	–	–	1.8	0.1
CCCCCCCCCCCCCNc1nc(NCCCCCC)nc(NCC2CCN(C)CC2)n1 [Compound N6N13D10]	–	–	0.0	0.0
CCCCCCCCCCCCNc1nc(NCCCCCCCC)nc(NCCN2CCOCC2)n1 [Compound N8N12D2]	–	–	0.0	0.0
CCCCCCCNc1nc(NCCCCCC)nc(NCCN2CCN(C)CC2)n1 [Compound N6N7D5]	–	–	0.0	0.4
CCCCCCCCNc1nc(NCCCCCCC)nc(NCCCN2CCOCC2)n1 [Compound N7N8D8]	–	–	0.0	0.0
CCCCCCCCCCCCN(CCCCCCCCCCCC)c1nc(NCCCCCCCCC)nc(NCCN2CCCCC2)n1 [N9^2N12D4]	–	–	0.0	0.4
CCCCCCCCCCCCNc1nc(NCCCCCC)nc(NCCN2CCOCC2)n1 [Compound N6N12D2]	–	–	0.0	0.0
CCCCCCCCCCCCCCCNc1nc(NCCCCCC)nc(NCCN2CCOCC2)n1 [Compound N6N15D2]	–	–	0.0	0.1
CCCCCCCCCCCCCCCCCCNc1nc(NCCCCCCCCCCC)nc(NCCCN2CCOCC2)n1 [Compound N11N18D8]	–	–	2.2	1.2
CCCCCCNc1nc(NCCCCCC)nc(NCC2CCN(C)CC2)n1 [Compound N6N6D10]	–	–	0.0	0.0
CCCCCCCCCCCCCNc1nc(NCCCCCCCCCCCCC)nc(NCC2CCN(C)CC2)n1 [Compound N13N13D10]	–	–	0.3	2.9
CCCCCCCCCCCCCCCCSc1nc(NCCN2CCN(C)CC2)nc(SCCCCCCCCCC)n1 [Compound S10S16D5]	–	–	9.4	13.6
CCCCCCCCCCCCCCCCCCNc1nc(NCCN2CCN(C)CC2)nc(N(CCCCCCCCCCCC)CCCCCCCCCCCC)n1 [N18^2N12D5]	–	–	0.7	0.7
